Measured values reported in paper doi:10.1101/2024.05.30.596757v1 (biorxiv, 2024).

Experiments:
eGFP-53BP1 = eGFP-53BP1 (Homo sapiens, UniProt Q12888); test: eGFP-53BP1 foci count per nucleus by confocal microscopy, DIvA cells; type: cell-based
[1] = biological target: 53BP1 TTD (tandem tudor domain) (Homo sapiens, UniProt Q12888); test: SPR, OneStep gradient injections, kinetic fit with mass transport; type: binding
Sequence of 53BP1 TTD (tandem tudor domain) (Q12888 1483-1606): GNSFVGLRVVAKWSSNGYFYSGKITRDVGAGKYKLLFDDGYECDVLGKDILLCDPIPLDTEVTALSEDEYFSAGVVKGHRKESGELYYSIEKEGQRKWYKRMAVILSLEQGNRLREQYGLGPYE

Sequence of eGFP-53BP1 (Q12888 whole entry, the tested form may be a part): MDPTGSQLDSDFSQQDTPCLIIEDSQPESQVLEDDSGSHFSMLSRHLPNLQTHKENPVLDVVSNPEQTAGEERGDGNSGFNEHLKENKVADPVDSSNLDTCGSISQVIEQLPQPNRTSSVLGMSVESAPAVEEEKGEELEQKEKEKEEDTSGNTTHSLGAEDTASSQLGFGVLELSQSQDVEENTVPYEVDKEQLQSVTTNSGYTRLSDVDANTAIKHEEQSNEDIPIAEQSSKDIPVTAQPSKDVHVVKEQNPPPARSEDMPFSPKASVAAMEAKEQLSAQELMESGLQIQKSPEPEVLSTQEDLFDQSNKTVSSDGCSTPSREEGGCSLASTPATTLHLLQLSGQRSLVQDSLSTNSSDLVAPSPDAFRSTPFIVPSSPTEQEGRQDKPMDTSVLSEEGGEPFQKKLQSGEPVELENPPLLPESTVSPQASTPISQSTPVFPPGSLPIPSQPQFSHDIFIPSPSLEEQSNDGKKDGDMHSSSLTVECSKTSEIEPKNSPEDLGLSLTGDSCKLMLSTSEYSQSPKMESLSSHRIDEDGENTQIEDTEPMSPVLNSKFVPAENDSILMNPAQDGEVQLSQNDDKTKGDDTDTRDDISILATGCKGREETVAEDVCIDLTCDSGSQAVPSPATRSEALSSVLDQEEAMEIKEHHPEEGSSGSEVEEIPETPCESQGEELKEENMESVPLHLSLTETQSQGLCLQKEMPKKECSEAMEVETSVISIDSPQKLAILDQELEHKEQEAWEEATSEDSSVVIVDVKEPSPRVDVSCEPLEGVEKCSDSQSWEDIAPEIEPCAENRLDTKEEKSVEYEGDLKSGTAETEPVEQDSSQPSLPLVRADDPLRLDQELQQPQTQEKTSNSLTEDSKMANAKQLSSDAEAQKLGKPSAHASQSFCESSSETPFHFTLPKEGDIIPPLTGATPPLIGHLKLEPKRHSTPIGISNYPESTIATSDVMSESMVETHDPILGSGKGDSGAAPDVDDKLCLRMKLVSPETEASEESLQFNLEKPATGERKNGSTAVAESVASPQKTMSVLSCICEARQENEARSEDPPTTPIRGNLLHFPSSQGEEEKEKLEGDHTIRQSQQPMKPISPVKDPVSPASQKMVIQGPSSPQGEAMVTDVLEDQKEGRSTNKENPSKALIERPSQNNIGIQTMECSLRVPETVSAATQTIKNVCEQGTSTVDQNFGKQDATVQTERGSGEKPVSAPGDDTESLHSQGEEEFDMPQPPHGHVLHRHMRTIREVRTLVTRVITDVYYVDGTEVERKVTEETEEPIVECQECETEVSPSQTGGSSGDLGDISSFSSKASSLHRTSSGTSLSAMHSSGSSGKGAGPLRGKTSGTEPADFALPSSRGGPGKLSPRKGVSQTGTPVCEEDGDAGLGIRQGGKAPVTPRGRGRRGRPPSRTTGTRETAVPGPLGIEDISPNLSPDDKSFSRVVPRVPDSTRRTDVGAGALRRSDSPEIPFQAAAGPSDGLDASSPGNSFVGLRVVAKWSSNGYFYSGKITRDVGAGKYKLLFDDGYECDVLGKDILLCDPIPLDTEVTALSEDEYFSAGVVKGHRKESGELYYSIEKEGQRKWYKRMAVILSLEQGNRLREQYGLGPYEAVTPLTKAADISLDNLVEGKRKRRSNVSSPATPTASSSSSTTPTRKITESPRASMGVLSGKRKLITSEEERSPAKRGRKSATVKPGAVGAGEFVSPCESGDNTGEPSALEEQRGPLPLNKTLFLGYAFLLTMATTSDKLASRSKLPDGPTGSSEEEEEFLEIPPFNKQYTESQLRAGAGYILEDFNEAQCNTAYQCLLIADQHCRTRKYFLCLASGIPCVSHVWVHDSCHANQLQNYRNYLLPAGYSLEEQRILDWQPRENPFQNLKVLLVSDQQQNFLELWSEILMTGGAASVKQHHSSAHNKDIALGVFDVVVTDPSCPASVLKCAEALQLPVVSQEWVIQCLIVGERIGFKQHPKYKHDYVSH

## CCN1CCN(C(=O)c2ccc(Cn3nc(C)cc3C)cc2)CC1 [EoHR, (4-((3,5-dimethyl-1H-pyrazol-1-yl)methyl)phenyl)(4-ethylpiperazin-1-yl)methanone]
eGFP-53BP1
  IC50: 13 ± 5 µM
[1]
  Kd: 14 µM
